This is an account of results in patent US8518989B2, “Prodrugs of short-chain fatty acids and treatment methods” (Georgia Health Sciences University Research Institute, Inc., priority 2005, dated 2013).

Assay [1] relates to all three isoforms of NOS. The conditions noted are these: read-out: Km for arginine; cited from earlier work.
In assay [2] the test system is HMEC, HBL100, and MCF10A. In words: Apoptosis in non-transformed mammary epithelial cell lines (FACS, sub-G1). The format is cell-based, human. The conditions noted are these: normal mammary epithelial cells expressing SMCT1. The method, then:
(§1) Cell cycle analysis: Cells were fixed in 50% ethanol, treated with 0.1% sodium citrate, 1 mg/ml RNase A, and 50 μg/ml propidium iodide, and subjected to FACS (Becton Dickinson FacsCaliber) analysis. Cells with DNA content below Cl were scored as apoptotic population.

In assay [3] the test system is MCF7, T47D, and ZR75.1. The experiment in a line: Apoptosis in breast tumor cell lines (FACS, sub-G1). The format is cell-based, human. The method, then:
as §1

The test system of assay [4] is SMCT1 and C/EBPδ expression. In words: Induction of SMCT1 and C/EBPδ expression in MCF7 cells (RT-PCR). The format is cell-based, human. The conditions noted are these: NaB 5 mM, TSA 1 μM, MAA 5 mM, VPA 2 mM, 18 or 24 h. The method, then: RT-PCR: Two μg of RNA was reverse transcribed using the Gene Amp PCR system (Roche) according to the manufacturer's instructions. Amplification of cDNA corresponding to mouse [NT] (sense) (SEQ ID NO:9), [NT] (anti-sense) (SEQ ID NO: 10)], mouse [NT] (sense) (SEQ ID NO:11), [NT] (anti-sense) (SEQ ID NO:12)], human [NT] (sense) (SEQ ID NO:13), [NT] (anti-sense) (SEQ ID NO:14)], and human C/EBPδ [[NT] (sense) (SEQ ID NO:15), [NT] (anti-sense) (SEQ ID NO:16)] was carried out using HPRT1 (hypoxanthine guanine phosphoribosyl transferase 1) as an internal control.

In assay [5] the test system is HDAC. The experiment in a line: HDAC activity in a cell-free system with MCF7 cell lysate. Format: biochemical, human. On the procedure:
Measurement of HDAC activity in a cell-free system: This was done using a commercially available assay kit (BioVision). MCF7 cell lysate was used as a source of HDAC activity. 50 μg of lysate protein was incubated with various monocarboxylates (1 mM), or trichostatin A (20 μM), and the reaction was initiated by the addition of HDAC substrate. The reaction was then terminated and the deacetylated product was measured according to the manufacturer's instructions. The activity is expressed in nmoles of deacetylated product formed per μg of MCF7 cell lysate protein per 30 min.

Assay [6] concerns MCF7 cells transfected with SMCT1 cDNA. In words: Colony formation assay in MCF7 cells transfected with SMCT1 cDNA. The settings on record: SMCT1-expressing MCF7 cells. Format: cell-based, human.

A word on the Km: it is the substrate concentration at which the rate is half of its maximum.

In the case of `N=C(N)NCCC[C@H](N)C(=O)O` [arginine], in assay [1], the Km was 3 to 30 µM.
For the compound `CC(/C=C/C(=O)NO)=C\[C@@H](C)C(=O)c1ccc(N(C)C)cc1` [trichostatin A], the Induction of apoptosis entry is recorded as “does not induce apoptosis” in assay [2] and “cause apoptosis specifically in tumor cell lines” in assay [3]. For the same compound, the “Induction of SMCT1 and C/EBPδ expression” value in assay [4] was “induce the expression of both genes”.
Consider `COCC(=O)O` [methoxyacetate, methoxyacetic acid], for which the Induction of apoptosis entry in assay [3] is on record as “do not have any effect on apoptosis”. Besides, in assay [4], the “Induction of SMCT1 and C/EBPδ expression” value is given as “no or little activity”.
For the compound `CC(O)C(=O)O` (stereo not shown) [lactate], in assay [5], the “HDAC inhibition (in words)” value is “does not”. In addition, the “Effect on cell growth / apoptosis” value in assay [6] was “no effect on cell growth”.
`CCCC(CCC)C(=O)O` [valproate, valproic acid]: the Induction of apoptosis result in assay [3] is recorded as “do not have any effect on apoptosis”. Also, in assay [4], the “Induction of SMCT1 and C/EBPδ expression” value is recorded as “no or little activity”.
